One series concerns OM. The experiment in a line: Outer membrane damage by less hydrophobic analogs. It is filed as cell-based.
For another series, the system named is E. coli strain 16327. The experiment in a line: Checkerboard antibiotic MIC with Compound B. It is filed as cell-based, Escherichia coli. As to the method:
(§1) Minimal inhibitory concentrations (MICs) were determined as previously described. […] MICs were determined by microdilution susceptibility testing in 96-well plates (by Nunc) using inocula of 10^5 bacteria per ml. Cell populations were evaluated by optical density measurements at 620 nm and were calibrated against a set of standards. Hundred (100) μl of a bacterial suspension were added to 100 μl of culture medium (control) or to 100 μl of culture medium containing various tested compound concentrations in 2-fold serial dilutions. Inhibition of proliferation was determined by optical density measurements at 620 nm after an incubation period of 24 hours at 37° C. Data were obtained from ≥2 independent experiments performed in duplicate.
(§2) Shown in parentheses are calculated sensitization factor, defined as antibiotic's MICs ratio (in absence vs. presence of Compound B) at specified Compound B concentration.

The subject of the next series is E. coli strain 35218. The experiment in a line: Checkerboard antibiotic MIC with Compound B. The format is cell-based, Escherichia coli. The method, then: as §1, §2
For the next series, the system named is E. coli strain 25922. The series is described as follows: Checkerboard antibiotic MIC with Compound B. The format is cell-based, Escherichia coli. The method, then:
as §1, §2

Another series concerns E. coli strain 14182. The experiment in a line: Checkerboard antibiotic MIC with Compound B. It is filed as cell-based, Escherichia coli. As to the method: as §1, §2
For a further series, the system named is E. coli strain 14384. The series is described as follows: Checkerboard antibiotic MIC with Compound B. The format is cell-based, Escherichia coli. As to the method: as §1, §2
For series [1], the system named is E. coli strains 25922, 35218, 14182, 16327, 14384. The experiment in a line: MIC against the 5 listed E. coli strains of Table 2 (stated together). As to conditions: absence of Compound B. The format is cell-based, Escherichia coli. As to the method:
as §1, §2

Series [2] deals with E. coli 25922. The series is described as follows: Time-kill kinetics in broth versus plasma. The format is cell-based, Escherichia coli. As to the method:
(§3) Time-kill kinetics data were determined using 100 μl of bacterial suspension (10^6 CFU/ml), which was added to […] LB containing none of or specified concentrations of the tested compound, antibiotic, and combinations thereof. After the specified exposure time points (37° C. under shaking), aliquots were formed, subjected to serial 10-fold dilutions in saline (0.85% NaCl), and plated for bacterial enumeration after additional 24 hours incubation at 37° C. Time-kill experiments in human and mouse plasma were performed as described elsewhere. The effects of drug delay were assessed in LB, except that bacteria were pre-incubated with the tested compound or antibiotic for the specified time points, centrifuged, and resuspended in fresh LB-containing antibiotic or the tested compound, respectively, and incubated for 3 hours before CFU enumeration.

Series [3] deals with E. coli 25922. The experiment in a line: Simultaneous versus delayed drug exposure assay in LB. The format is cell-based, Escherichia coli. As to the method: as §3
The conditions of series [4]: Oral 20 mg/kg, published data, cited from earlier work.
For another series, the system named is Escherichia coli 25922. The experiment in a line: Mouse peritonitis-sepsis model. Conditions: neutropenic ICR mice; rifampin 20 mg/kg orally alone. The format is in vivo. The method, then:
A mouse peritonitis-sepsis model was created as described elsewhere. Infection was obtained after intraperitoneal injection of bacteria from a logarithmic-phase culture. Infected mice were treated subcutaneously. The doses were selected to allow comparison with the reference compound and to remain below the maximum tolerated dose after double-dose administration. […] Briefly, mouse peritonitis sepsis model for in vivo studies were performed using male ICR mice ([…]) obtained from Envigo Laboratories (Rehovot, Israel). […] Infection was obtained by intraperitoneal injection of a logarithmic phase culture of E. coli 25922 (1.3±0.2×10^6 CFU permouse in 0.3 ml PBS). […] Infection control mice were injected with the PBS vehicle. Mouse survival was monitored for up to 7 days after treatment. Statistical analyses were performed by paired Student's t test, at α=0.05.

Like-named read-outs stand apart in the source and are kept apart here. Non-standard residues stand in square brackets, D forms with d. Residues, ends and D or L forms follow the SMILES beside them. *: point of attachment. 12Ado = NCCCCCCCCCCCC(=O)O; Octanoyl = CCCCCCCC(=O)*

Consider `CCCCCCCC(=O)N[C@@H](CCCCN)C(=O)N[C@@H](CCCCN)C(=O)NCCCCCCCCCCCC(=O)N[C@@H](CCCCN)C(N)=O` [Compound C8KKC12K] (Octanoyl-KK[12Ado]K-NH2), for which, in the series with OM, the “damage to the OM” value is reported as “able to damage the OM”.
`CO[C@H]1/C=C/O[C@@]2(C)Oc3c(C)c(O)c4c(O)c(c(/C=N/N5CCN(C)CC5)c(O)c4c3C2=O)NC(=O)/C(C)=C\C=C\[C@H](C)[C@H](O)[C@@H](C)[C@@H](O)[C@@H](C)[C@H](OC(C)=O)[C@@H]1C` [Rifampin, rifampin]: the “Antibiotic MIC in the presence of Compound B” value (“Antibiotic MIC in the presence” for short) stood at 16 µg/mL in the series on E. coli strain 16327 (Compound B 0 μM); 0.031 µg/mL in the series with E. coli strain 16327 (Compound B 2.5 μM); 0.004 µg/mL in the series with E. coli strain 16327 (Compound B 5 μM); 0.002 µg/mL with E. coli strain 16327 (Compound B 10 μM); 8 µg/mL with E. coli strain 35218 (Compound B 0 μM); 0.016 µg/mL with E. coli strain 35218 (Compound B 5 μM). The “Antibiotic MIC in the presence” value was 0.002 µg/mL with E. coli strain 35218 (Compound B 10 μM); 8 to 16 µg/mL in the series on E. coli strain 25922 (Compound B 0 μM); 16 µg/mL in the series with E. coli strain 25922 (Compound B 0 μM, listed as rifampin); 0.063 µg/mL with E. coli strain 25922 (Compound B 2.5 μM); 0.004 µg/mL in the series with E. coli strain 25922 (Compound B 5 μM); 0.001 µg/mL in the series on E. coli strain 25922 (Compound B 10 μM). For the same compound, the “Antibiotic MIC in the presence” value in the series with E. coli strain 14182 (Compound B 0 μM) was 8 µg/mL; with E. coli strain 14182 (Compound B 2.5 μM), 0.031 µg/mL; with E. coli strain 14182 (Compound B 5 μM), 0.004 µg/mL; in the series on E. coli strain 14182 (Compound B 10 μM), 0.002 µg/mL; with E. coli strain 14384 (Compound B 0 μM), 8 µg/mL; with E. coli strain 14384 (Compound B 2.5 μM), 0.016 µg/mL. The “Antibiotic MIC in the presence” value stood at 0.008 µg/mL in the series with E. coli strain 14384 (Compound B 5 μM) and 0.002 µg/mL in the series with E. coli strain 14384 (Compound B 10 μM). In addition, the minimum inhibitory concentration (MIC) (in general, the lowest concentration that inhibits growth of the organism) with E. coli strain 25922 (Escherichia coli, read-out: rifampin's MIC value, in the presence of Compound B) was found to be 1 ng/mL. Also, the “antibiotic MICs in the absence of the compound, all the strains tested” value in [1] lay within 8 to 16 µg/mL. Also, the “reduction of bacterial survival” value with E. coli 25922 [2] (LB broth, 24-hours end point, rifampin 1 μg/ml combined with Compound B 0.6 μM) was “more than 99%”. Also, the “reduction of CFU count” value in the series with E. coli 25922 [2] (human plasma, within 2 hours of exposure, rifampin 1 μg/ml with Compound B 0.6 μM) is listed as “more than 3 log units”; in the series on E. coli 25922 [3] (0.06 μg/ml rifampin in the presence of Compound B (10 μM), simultaneous, 3 hours in LB), about 4 log units. Moreover, the “time to accomplish the CFU reduction (more than 3 log units)” value with E. coli 25922 [2] (human plasma, antibiotic with Compound B 0.6 μM) is on record as at most 2 hours. Also, the “combined action with Compound B” value with E. coli 25922 [2] (mouse plasma, 24 hours end point, Compound B 10 μM with rifampin 1 μg/ml or erythromycin 3 μg/ml) is recorded as “expressed synergism of action”. Also, the “effect of delayed exposure on sensitization by Compound B” value with E. coli 25922 [3] (Compound B 10 μM with 0.06 μg/ml rifampin or 4 μg/ml erythromycin, LB) is “nearly abolished the sensitization effect”. Besides, the Plasma concentration in series [4] (0.5 h) is 6.5 ± 4.7 µg/mL; in series [4] (1 h) it was 10.3 ± 0.4 µg/mL; in [4] (2 h), 13.2 ± 4.4 µg/mL. For the same compound, the “survival rate of infected mice” value with Escherichia coli 25922 is “zero”.

The values are drawn from patent US20200399308A1, “COMPOUNDS AND METHODS FOR ELICITING ANTIMICROBIAL ACTIVITY” (Technion Research & Development Foundation Limited, priority 2018, published 2020).
